Here are results for two molecules from patent publication US9925162B2, “Methods and compositions for inducing physiological hypertrophy” (THE REGENTS OF THE UNIVERSITY OF COLORADO, priority 2009, dated 2018).

Assay [1] has as its system Neonatal rat ventricular myocytes (NRVMs). In words: Inhibition of fatty acid transport blocks serum-induced NRVM hypertrophy. The format is cell-based. The following applies: Coulter Counter. The protocol:
Synthesis of Sulfo-N-succinimidyl oleate (SSO) was performed as described by Harmon et al. (J. Membr Biol.; 121:261-268; 1991), which is hereby incorporated by reference. Briefly, oleate (0.25 mM), HOSu(SO3)Na (0.25 mM), and dicyclohexylcarbodiimide (DCC) (0.275 mM) were dissolved in 0.5 ml of dry N,N-dimethylformamide (DMF) and stirred overnight at room temperature. Precipitated dicyclohexyturea was removed by filtration, and the filtrate cooled to 3° C. for 4 hours. Eight volumes of ethyl acetate were added, and the precipitated product was collected by filtration under nitrogen and then stored in a vacuumed desiccator over phosphorus pentoxide. Neonatal rat ventricular myocytes (NRVMs) were cultured in serum-free media (MEM/Hepes/PB12) containing insulin, transferrin, BSA, and BrdU. NRVMs were treated with serum (2%) in the presence and absence of SSO (400 μM) for 48 hours and cell size was determined using a Coulter Counter.

For assay [2], the system named is neonatal rat cardiomyocytes. As to the kind of experiment: Fasted plasma supplemented with fatty acids, NRVM cell size. The class given is cell-based. The settings on record: fasted plasma 2% supplemented to 1 DPF-like levels (C14 40 μM; C16 137 μM; C16:1 7.5 μM), 48 hours, FIG. 10. As for the experimental part:
(§1) Individual fatty acids were complexed to BSA as described by de Vries et al. (J. Lipid Res.; 38:1384-1394; 1997), which is hereby incorporated by reference. […] An equal volume of Na2CO3 (10 mM) was added and the ethanol was evaporated at 60° C. under continuous N2 flow. The fatty acid mix was added dropwise to 10% BSA. BSA/fatty acid complexes were then dialyzed four times at 4° C. during 4-6 hours in NH4HCO3 (0.1 M). Complexes were then frozen, lyophilized overnight, and resuspended in NRVM rinse media (MEM/PB12/Hepes) for a final concentration of 7 mM. NRVMs were treated with fasted serum, 1 day post-fed serum, or fasted serum+individual fatty acids. […] NRVM gene expression and mean cell diameter were determined after either 24 or 48 hours, respectively.

Another assay relates to Aquaporin 7. As to the kind of experiment: Aqp7 mRNA by qPCR after fatty acid treatment. The class given is cell-based, rat. The settings on record: fasted plasma supplemented with FFAs, relative to 1 DPF plasma, FIG. 11. The protocol: as §1

Turning to `CCCCCCCC/C=C\CCCCCCCC(=O)ON1C(=O)CC(S(=O)(=O)O)C1=O` (stereo not shown) [SSO, Sulfo-N-succinimidyl oleate], in assay [1] (SSO 400 μM, 2% 1DPF serum, 48 hours), the “cell growth induced by the fed-serum” value is recorded as “completely blocks”. In addition, the cell size result in assay [1] (SSO and no serum (control)) is listed as “smaller”.

As to `CCCCCCCCCCCCCC(=O)O` [C14, tetradecanoic acid], the “changes in cell size” value in assay [2] was “significant increase”. The “Aqp7 mRNA levels” value with Aquaporin 7 was “comparable levels observed with 1 DPF plasma”.
